{"source": "patent US20230053342A1", "about": "“IMIDAZOLIDINONE COMPOUND, PREPARATION METHOD THEREFOR AND USE THEREOF” (BETTA PHARMACEUTICALS CO., LTD, priority 2019, published 2023)", "key": {"human tumor cells HGC27": {"test_system": "human tumor cells HGC27", "assay": "Cell proliferation assay (CellTiter Glo), HGC27", "type": "cell-based", "conditions": "HGC-27, HGC27 cells incubated for 96 h, read-out: IC50(μM) of ompound on HGC-27cell", "description": "(§1) Method: The anti-proliferative effects on human tumor cells MCF-7 and HGC27 of certain compounds of the present invention were evaluated by CellTiter Glo assay.\n(§2) Detection method: MCF-7 cells were suspended in DMEM culture medium, the cell concentration of which was adjusted to 25000 cells/mL; HGC27 cells were suspended in RPMI-1640 culture medium, the cell concentration of which was adjusted to 5000 cells/mL. 100 μL of cell suspension was dispensed to a 96-well assay plate and placed in a CO2 incubator overnight. The tested compounds were dissolved in DMSO, and 3-fold derail dilution was performed to obtain 10-point concentrations. the 10-point concentrations of the tested compounds or or negative control was transferred to the well containing 100 μL of culture medium respectively, incubated at 37° C., 5% CO2, the HGC27 cells were incubated for 96 h, MCF-7 cells were incubated for 120 h. Then 100 μL of CellTiter-Glo agent was added to the above-mentioned 96-well assay plate, incubated at room temperature for 10 minutes to allow stable luminescence signal. VICTOR™ X5 instrument was used to record RLU (relative luminescence unit), and then calculate the IC50 values were calculated.\n(§3) Compound inhibition rate(% inh)=100% −(tested compound RLU-blank control RLU)/(negative control RLU-blank control RLU)*100%\n(§4) Blank control: blank culture medium, with no compound or cell;\n(§5) The IC50 (half inhibitory concentration) of the compound was obtained using the following nonlinear fitting formula:\n(§6) Y=minimum inhibition rate+(max inhibition rate-minimum inhibition rate)/(1+10^((Log IC50−X)*slope)); wherein, X: the log value of the concentration of the tested compound; Y: the inhibition rate of the tested compound(% inh)."}, "PI3Kα": {"molecular_target": "PI3Kα (Homo sapiens, UniProt P42336)", "sequence (P42336 whole entry)": "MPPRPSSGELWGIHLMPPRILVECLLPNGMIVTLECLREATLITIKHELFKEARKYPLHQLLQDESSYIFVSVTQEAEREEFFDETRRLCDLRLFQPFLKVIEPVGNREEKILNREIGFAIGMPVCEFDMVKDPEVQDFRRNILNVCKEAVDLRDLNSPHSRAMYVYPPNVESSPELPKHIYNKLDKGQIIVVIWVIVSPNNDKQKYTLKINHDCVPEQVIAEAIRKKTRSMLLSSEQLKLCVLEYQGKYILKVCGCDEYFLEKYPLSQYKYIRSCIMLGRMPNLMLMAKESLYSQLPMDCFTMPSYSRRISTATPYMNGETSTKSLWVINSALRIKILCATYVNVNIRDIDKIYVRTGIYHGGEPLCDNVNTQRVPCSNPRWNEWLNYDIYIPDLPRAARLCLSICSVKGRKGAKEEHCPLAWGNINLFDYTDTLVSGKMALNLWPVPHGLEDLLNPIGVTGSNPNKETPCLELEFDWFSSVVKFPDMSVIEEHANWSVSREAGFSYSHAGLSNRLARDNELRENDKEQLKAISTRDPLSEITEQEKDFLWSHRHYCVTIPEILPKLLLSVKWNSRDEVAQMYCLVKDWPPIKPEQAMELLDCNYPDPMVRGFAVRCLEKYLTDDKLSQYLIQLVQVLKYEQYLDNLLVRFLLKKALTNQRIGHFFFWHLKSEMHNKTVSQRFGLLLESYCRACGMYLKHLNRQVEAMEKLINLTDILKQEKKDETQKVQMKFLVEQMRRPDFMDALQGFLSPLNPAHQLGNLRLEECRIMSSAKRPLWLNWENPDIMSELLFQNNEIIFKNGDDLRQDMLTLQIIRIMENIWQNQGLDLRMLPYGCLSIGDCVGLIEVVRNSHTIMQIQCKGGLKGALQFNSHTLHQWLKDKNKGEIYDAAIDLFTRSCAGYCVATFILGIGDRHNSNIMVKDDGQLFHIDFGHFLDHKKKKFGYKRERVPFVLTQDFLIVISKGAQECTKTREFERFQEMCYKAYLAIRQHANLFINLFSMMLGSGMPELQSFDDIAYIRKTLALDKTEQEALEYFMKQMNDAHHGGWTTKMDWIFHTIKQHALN", "sequence (P27986 whole entry partner)": "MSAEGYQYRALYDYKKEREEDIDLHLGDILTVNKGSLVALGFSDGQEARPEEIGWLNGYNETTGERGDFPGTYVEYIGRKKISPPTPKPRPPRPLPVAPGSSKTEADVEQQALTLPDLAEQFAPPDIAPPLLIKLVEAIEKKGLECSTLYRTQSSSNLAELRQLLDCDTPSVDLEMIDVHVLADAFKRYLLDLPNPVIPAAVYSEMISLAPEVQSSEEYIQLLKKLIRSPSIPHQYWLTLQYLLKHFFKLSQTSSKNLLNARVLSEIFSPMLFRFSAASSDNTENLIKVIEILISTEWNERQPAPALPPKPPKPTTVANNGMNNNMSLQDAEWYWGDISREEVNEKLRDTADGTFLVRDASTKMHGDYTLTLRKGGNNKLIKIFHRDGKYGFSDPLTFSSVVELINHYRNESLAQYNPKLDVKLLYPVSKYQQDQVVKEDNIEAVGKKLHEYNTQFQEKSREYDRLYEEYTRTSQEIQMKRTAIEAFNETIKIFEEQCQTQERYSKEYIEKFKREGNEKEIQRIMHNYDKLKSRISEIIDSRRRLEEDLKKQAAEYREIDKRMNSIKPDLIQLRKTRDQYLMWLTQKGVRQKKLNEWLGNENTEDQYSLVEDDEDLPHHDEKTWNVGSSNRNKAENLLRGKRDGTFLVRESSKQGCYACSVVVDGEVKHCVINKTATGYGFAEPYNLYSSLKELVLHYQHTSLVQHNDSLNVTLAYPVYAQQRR", "assay": "Kinase experiment (ADP-Glo, luminescence), PI3Kα", "type": "biochemical", "conditions": "final concentration of ATP 10 μM; read-out: IC50 of compound to PI3K (nM) α", "description": "(§7) PI3Kα, PI3Kβ, PI3Kγ kinases undergo enzymatic reactions with their substrates ATP and PIP2:3PS, the amount of the product detected by ADP-Glo agent and luminescence method were used to reflect the enzymatic activities of PI3Kα, PI3Kβ, PI3Kγ (the final concentration of ATP is 10 μM). The above methods were used to test the inhibitory activity of certain compound of the present invention on PI3Kα, PI3Kβ and PI3Kγ kinase.\n(§8) Agent: Basic kinase buffer (pH 7.5); PI3Kα, PI3Kβ, PI3Kγ kinase solutions; PIP2:3PS and ATP solutions; ADP-Glo kit (containing 10 mM MgCl2).\n(§9) Wherein, the buffer composition: 50 mM Hepes (pH 7.2-7.5), 3 mM MgCl2, 1 mM EGTA, 0.03% CHAPS, 100 mM NaCl, 2 mM DTT; • Compound preparation: The tested compound was diluted to a specific concentration with 100% DMSO. • Process: 1) PI3Kα, PI3Kβ, or PI3Kγ protein solution were dispensed to a 384-well assay plate (6008280, PerkinElmer), and centrifuged at 1000 rpm for 1 minute. • 2) Tested compound, negative control DMSO or positive control BYL719 was dispensed to the above-mentioned 384-well assay plate with the kinase, centrifuged at 1000 rpm for 1 min, and incubated at 25° C. for 15 mins. • 3) PIP2:3PS&ATP solution was added to the above-mentioned 384-well assay plate, centrifuged at 1000 rpm for 1 min, incubated at 25° C. for 60 mins. • 4) 5 μL of ADP-Glo agent (10 mM MgCl2 contained) was transferred to the 384-well assay plate, centrifuged at 1000 rpm for 1 min, incubated at 25° C. for 40 mins. • 5) 10 μL of Detection agent was transferred to the 384-well assay plate, centrifuged at 1000 rpm for 1 min, incubated at 25° C. for 40 mins. • 6) RLU (Relative luminescence unit) value was measured by Envision multifunctional plate reader. The RLU value was used to characterize the degree of reaction between the enzyme and the substrate, and calculate the IC50 value. • 7) Data analysis:\n(§10) Compound inhibition rate(% inh)=(negative control RLU-tested compound RLU)/(negative control RLU-positive control RLU)*100%\nas §5\n(§11) Y=minimum inhibition rate+(max inhibition rate-minimum inhibition rate)/(1+10^((Log IC50−X)*slope)); wherein, X is the log value of the concentration of the tested compound, Y is the inhibition rate of tested compound(% inh)."}, "human tumor cells MCF-7": {"test_system": "human tumor cells MCF-7", "assay": "Cell proliferation assay (CellTiter Glo), MCF-7", "type": "cell-based", "conditions": "MCF7, MCF-7 cells incubated for 120 h, read-out: IC50(μM) of compound on MCF cell", "description": "as §1, §2, §3, §4, §5, §6"}, "PI3Kβ": {"molecular_target": "PI3Kβ (Homo sapiens, UniProt P42338)", "sequence (P42338 whole entry)": "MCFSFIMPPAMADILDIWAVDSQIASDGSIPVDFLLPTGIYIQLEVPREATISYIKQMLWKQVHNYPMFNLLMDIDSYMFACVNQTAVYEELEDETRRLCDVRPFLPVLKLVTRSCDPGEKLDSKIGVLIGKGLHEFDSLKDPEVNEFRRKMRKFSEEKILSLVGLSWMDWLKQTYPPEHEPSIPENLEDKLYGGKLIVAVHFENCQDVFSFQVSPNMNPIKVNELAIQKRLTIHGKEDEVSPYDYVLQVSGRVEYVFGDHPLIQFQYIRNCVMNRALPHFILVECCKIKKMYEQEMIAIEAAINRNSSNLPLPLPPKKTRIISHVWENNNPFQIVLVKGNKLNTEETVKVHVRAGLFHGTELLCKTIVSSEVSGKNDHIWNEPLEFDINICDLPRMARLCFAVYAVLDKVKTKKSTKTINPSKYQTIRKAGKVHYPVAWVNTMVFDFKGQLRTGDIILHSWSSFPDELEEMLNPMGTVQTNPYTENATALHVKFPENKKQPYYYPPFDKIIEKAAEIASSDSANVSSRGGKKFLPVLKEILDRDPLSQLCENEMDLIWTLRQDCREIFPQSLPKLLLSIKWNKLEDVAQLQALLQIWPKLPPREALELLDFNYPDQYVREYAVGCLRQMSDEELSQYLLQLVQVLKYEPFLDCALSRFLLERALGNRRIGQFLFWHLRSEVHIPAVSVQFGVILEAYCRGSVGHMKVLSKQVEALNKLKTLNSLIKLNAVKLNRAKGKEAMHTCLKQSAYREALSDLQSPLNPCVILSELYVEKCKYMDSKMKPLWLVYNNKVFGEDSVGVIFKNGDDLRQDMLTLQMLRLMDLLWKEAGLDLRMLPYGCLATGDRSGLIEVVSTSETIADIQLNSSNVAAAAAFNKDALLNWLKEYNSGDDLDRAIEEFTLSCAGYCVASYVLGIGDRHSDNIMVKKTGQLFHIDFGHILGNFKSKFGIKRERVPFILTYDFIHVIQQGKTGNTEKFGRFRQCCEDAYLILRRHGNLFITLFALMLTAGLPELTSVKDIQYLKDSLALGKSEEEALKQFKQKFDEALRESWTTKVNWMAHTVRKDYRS", "sequence (P27986 whole entry partner)": "as the sequence (P27986 whole entry partner) above", "assay": "Kinase experiment (ADP-Glo, luminescence), PI3Kβ", "type": "biochemical", "conditions": "final concentration of ATP 10 μM; read-out: IC50 of compound to PI3K (nM) β", "description": "as §7, §8, §9, §10, §5, §11"}, "PI3Kγ": {"molecular_target": "PI3Kγ (Homo sapiens, UniProt P48736)", "sequence (P48736 whole entry)": "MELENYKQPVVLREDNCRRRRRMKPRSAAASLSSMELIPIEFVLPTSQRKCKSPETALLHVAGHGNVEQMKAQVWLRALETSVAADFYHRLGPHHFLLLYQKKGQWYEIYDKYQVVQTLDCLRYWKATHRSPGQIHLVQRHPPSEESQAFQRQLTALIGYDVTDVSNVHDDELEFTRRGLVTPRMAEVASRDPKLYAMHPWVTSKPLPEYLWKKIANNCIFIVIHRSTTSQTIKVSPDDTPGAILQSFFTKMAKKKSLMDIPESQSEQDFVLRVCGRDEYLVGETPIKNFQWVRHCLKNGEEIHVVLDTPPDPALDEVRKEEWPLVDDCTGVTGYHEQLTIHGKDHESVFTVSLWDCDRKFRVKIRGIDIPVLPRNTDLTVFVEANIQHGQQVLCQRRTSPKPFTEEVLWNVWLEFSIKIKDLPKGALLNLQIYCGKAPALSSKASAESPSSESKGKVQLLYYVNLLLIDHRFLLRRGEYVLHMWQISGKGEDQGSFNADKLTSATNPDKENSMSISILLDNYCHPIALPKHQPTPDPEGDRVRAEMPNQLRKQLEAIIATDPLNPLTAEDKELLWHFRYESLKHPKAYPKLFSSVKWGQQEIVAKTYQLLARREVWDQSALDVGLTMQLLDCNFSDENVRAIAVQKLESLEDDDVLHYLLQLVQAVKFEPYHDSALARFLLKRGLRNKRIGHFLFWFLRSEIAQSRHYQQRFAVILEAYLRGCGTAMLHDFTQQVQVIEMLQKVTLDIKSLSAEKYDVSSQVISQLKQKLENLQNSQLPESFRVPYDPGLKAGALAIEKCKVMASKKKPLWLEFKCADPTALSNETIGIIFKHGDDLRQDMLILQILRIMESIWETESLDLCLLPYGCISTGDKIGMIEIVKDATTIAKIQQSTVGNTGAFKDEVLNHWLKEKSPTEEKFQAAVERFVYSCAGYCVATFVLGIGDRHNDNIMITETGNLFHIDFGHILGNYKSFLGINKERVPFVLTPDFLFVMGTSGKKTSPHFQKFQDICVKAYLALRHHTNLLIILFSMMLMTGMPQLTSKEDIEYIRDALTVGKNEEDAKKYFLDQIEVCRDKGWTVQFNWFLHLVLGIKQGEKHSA", "assay": "Kinase experiment (ADP-Glo, luminescence), PI3Kγ", "type": "biochemical", "conditions": "final concentration of ATP 10 μM; read-out: IC50 of compound to PI3K (nM) γ", "description": "as §7, §8, §9, §10, §5, §11"}, "[1]": {"assay": "Pharmacokinetic test in male SD rats", "type": "in vivo", "conditions": "rat, plasma", "description": "Method: 42 male SD rats, weight: 150-300 g. Divided into 7 groups randomly, with 6 rats in each group. Among the 6 rats in each group, three of them were administrated a single intravenous injection of […] of the example compound, the other three were given intragastric administration of […] of the example compound, blood was collected from the orbital venous plexus at designated time points, plasma was separated, and stored in a −80° C. refrigerator for later use.\nThe protein of the resultant plasma was precipitated by acetonitrile, the supernatant was extracted, and mixed with water at the ratio of 1:1, took 10 μL of which for LC-MS/MS detection, and calculated the average was calculated."}}}
{"molecule": "CC(C)[C@H]1C(=O)N(C2CC2)C(=O)N1c1cn2c(n1)-c1ccc(N3CCC[C@H]3C(N)=O)cc1OCC2", "note": "[Example 33, (2S)-1-(2-((5S)-3-cyclopropyl-5-isopropyl-2,4-dioxoimidazolidin-1-yl)-5,6-dihydrobenzo[f]imidazo[1,2-d] [1,4]oxazepin-9-yl)pyrrolidine-2-carboxamide]", "values": [{"measurement": "IC50", "setting": "human tumor cells HGC27", "result": 0.267, "unit": "µM"}, {"measurement": "IC50", "setting": "PI3Kα", "result": "< 5", "unit": "nM"}, {"measurement": "IC50", "setting": "human tumor cells MCF-7", "result": 0.047, "unit": "µM"}, {"measurement": "IC50", "setting": "PI3Kβ", "result": "> 600", "unit": "nM"}, {"measurement": "IC50", "setting": "PI3Kγ", "result": "> 600", "unit": "nM"}, {"measurement": "clearance", "setting": "[1]; intravenous injection, 2 mg/kg", "result": 11.1, "unit": "mL/min/kg"}, {"measurement": "AUC", "setting": "[1]; po, gavage, 10 mg/kg", "result": 19800, "unit": "ng·h/mL"}, {"measurement": "Cmax", "setting": "[1]; po, gavage, 10 mg/kg", "result": 1600, "unit": "ng/mL"}]}
